Measurements reported in PubChem BioAssay AID328 (DTP/NCI, 2004).
“And” between values parts separate entries of the source, which are not always exact repeats. Equal values may be shown once. Inconclusive results and toxic doses are left out.

Tested on: BDF1 mice, P388 leukemia ip, median survival T/C
Experiment: NCI In Vivo Anticancer Drug Screen. Data for tumor model P388 Leukemia (intraperitoneal) in B6D2F1 (BDF1) mice
Conditions: endpoint: median survival time, higher = longer survival
In short: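 Each value expresses how treatment altered survival: treated-mouse outcome over vehicle-mouse outcome, both groups bearing the transplanted tumour.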

[1] = dose: 100.0 mg/kg/injection, schedule: Q04DX002 (ip), vehicle: saline with Tween-80
[2] = dose: 200.0 mg/kg/injection, schedule: Q04DX002 (ip), vehicle: saline with Tween-80
[3] = dose: 400.0 mg/kg/injection, schedule: Q04DX002 (ip), vehicle: saline with Tween-80
[4] = dose: 100.0 mg/kg/injection, schedule: Q01DX009 (ip), vehicle: saline with Tween-80

## CC(C)(C)OC(=O)c1cccc(C(=O)OC(C)(C)C)c1
[1]
  T/C: 103 % of control
[2]
  T/C: 95 % of control
[3]
  T/C: 94 % of control

## Nc1ncnc2c1nnn2C1CC(CO)C(O)C1O (centres undefined)
dose: 67.0 mg/kg/injection, schedule: Q01DX009 (ip), vehicle: saline with Tween-80
  T/C: 163 % of control
dose: 75.0 mg/kg/injection, schedule: Q01DX009 (ip), vehicle: saline with Tween-80
  T/C: 153 % of control
[4]
  T/C: 168 % of control

## CCOC(=O)C(C)NC(=O)C(C)NC(=O)OCc1ccccc1 (centres undefined)
dose: 100.0 mg/kg/injection, schedule: Q01DX009 (ip), vehicle: gum acacia
  T/C: 120 % of control
dose: 100.0 mg/kg/injection, schedule: Q04DX003 (ip), vehicle: gum acacia
  T/C: 95 % of control
dose: 200.0 mg/kg/injection, schedule: Q01DX009 (ip), vehicle: gum acacia
  T/C: 100 % of control
dose: 200.0 mg/kg/injection, schedule: Q04DX003 (ip), vehicle: gum acacia
  T/C: 112 % of control
dose: 400.0 mg/kg/injection, schedule: Q01DX009 (ip), vehicle: gum acacia
  T/C: 95 % of control
dose: 400.0 mg/kg/injection, schedule: Q04DX003 (ip), vehicle: gum acacia
  T/C: 87 % of control

## COc1nc(NC2OCC(O)C(O)C2O)c(C(=O)CCl)c(=O)n1C (centres undefined)
[1]
  T/C: 104 % of control
[2]
  T/C: 100 % of control
[3]
  T/C: 100 % of control

## NNC(=O)NO
dose: 25.0 mg/kg/injection, schedule: Q04DX003 (ip), vehicle: saline
  T/C: 95 % of control
dose: 50.0 mg/kg/injection, schedule: Q04DX003 (ip), vehicle: saline
  T/C: 104 % of control
dose: 100.0 mg/kg/injection, schedule: Q04DX003 (ip), vehicle: saline
  T/C: 100 % of control

## C=C(C)C(=O)O[C@H]1[C@H]2[C@H](OC(=O)[C@H]2C)[C@H](O)[C@@H](C)[C@@H]2C=CC(=O)[C@]21C
dose: 3.13 mg/kg/injection, schedule: Q01DX009 (ip), vehicle: saline
  T/C: 102 % of control
dose: 6.25 mg/kg/injection, schedule: Q01DX009 (ip), vehicle: saline
  T/C: 110 % of control
dose: 25.0 mg/kg/injection, schedule: Q01DX009 (ip), vehicle: saline
  T/C: 161 % of control

## C/C=C1/C[C@@H](C)[C@@](C)(O)C(=O)OCC2=CC[N+]3([O-])CC[C@@H](OC1=O)[C@@H]23 (some centres undefined)
dose: 10.0 mg/kg/injection, schedule: Q01DX010 (ip), vehicle: saline
  T/C: 109 % of control
dose: 20.0 mg/kg/injection, schedule: Q01DX010 (ip), vehicle: saline
  T/C: 104 % of control
dose: 40.0 mg/kg/injection, schedule: Q01DX010 (ip), vehicle: saline
  T/C: 113 % of control
dose: 80.0 mg/kg/injection, schedule: Q01DX010 (ip), vehicle: saline
  T/C: 109 % of control

## CN(C)C(=O)c1cccc(NCc2ccc3nc(N)nc(N)c3c2)c1
dose: 3.12 mg/kg/injection, schedule: Q01DX009 (ip), vehicle: saline with Tween-80
  T/C: 108 % of control
dose: 6.25 mg/kg/injection, schedule: Q01DX009 (ip), vehicle: saline with Tween-80
  T/C: 99 % of control
dose: 12.5 mg/kg/injection, schedule: Q01DX009 (ip), vehicle: saline with Tween-80
  T/C: 106 % of control
dose: 25.0 mg/kg/injection, schedule: Q01DX009 (ip), vehicle: saline with Tween-80
  T/C: 99 % of control
dose: 50.0 mg/kg/injection, schedule: Q01DX009 (ip), vehicle: saline with Tween-80
  T/C: 95 % of control and 108 % of control
dose: 50.0 mg/kg/injection, schedule: Q04DX003 (ip), vehicle: saline with Tween-80
  T/C: 100 % of control
[4]
  T/C: 91 % of control
dose: 100.0 mg/kg/injection, schedule: Q04DX003 (ip), vehicle: saline with Tween-80
  T/C: 100 % of control
dose: 200.0 mg/kg/injection, schedule: Q01DX009 (ip), vehicle: saline with Tween-80
  T/C: 101 % of control
dose: 200.0 mg/kg/injection, schedule: Q04DX003 (ip), vehicle: saline with Tween-80
  T/C: 104 % of control
dose: 400.0 mg/kg/injection, schedule: Q01DX009 (ip), vehicle: saline with Tween-80
  T/C: 94 % of control
dose: 400.0 mg/kg/injection, schedule: Q04DX003 (ip), vehicle: saline with Tween-80
  T/C: 102 % of control

## COC1=CC(=O)c2c(O)cc(OC)cc2C1=O
dose: 1.25 mg/kg/injection, schedule: Q01DX009 (ip), vehicle: saline with Tween-80
  T/C: 120 % of control
dose: 2.5 mg/kg/injection, schedule: Q01DX009 (ip), vehicle: saline with Tween-80
  T/C: 95 % of control
